Settings in all cases: post-emergence spray; lowest tested rate with 80% or greater inhibition; about 14 days after treatment
The test system of one assay is ABUTH. As to the kind of experiment: Post-emergence herbicidal activity on ABUTH (velvetleaf). In kind it is in vivo, Abutilon theophrasti. The text has this:
(§1) All such uses, and the biological activity enabling such uses, are embraced by the term “herbicidal” herein. Tables 15 and 16 summarize results of tests conducted as described below to determine the pre-emergence herbicidal activity, in the form of a GR80 value, of illustrative compounds of this invention. […] Where herbicidal activity was evident but 80% inhibition was not achieved at the highest rate tested (typically 1000 g/ha), an asterisk (*) is shown in the following tables. Herbicidal activity evident in the form of symptoms of phytotoxicity, in the absence of at least 80% inhibition at any rate, is indicated in the tables by “phyto”. A blank cell in the following tables indicates no herbicidal or phytotoxic response at any rate tested.
(§2) In another set of tests, the post-emergence activity of compounds of this invention was evaluated on the cool season species listed above. The following procedure was used.
(§3) A pre-prepared topsoil mixture (described above) was placed in a pot and compacted to a depth of 1.0 to 1.25 cm from the top of the pot. Seeds of each of several monocotyledonous and dicotyledonous annual plant species were placed on top of the soil The seeds were covered with a mixture of 50% topsoil and 50% Rediearth™ in sufficient quantity to level-fill the pots. The pots were then placed on a greenhouse bench and subirrigated as needed until plants growing from the seeds had emerged and reached a suitable growth stage for post-emergence treatment, typically 9 to 14 days after planting.
(§4) A known amount of each test compound dissolved or suspended in an appropriate organic solvent was diluted with a 50:50 mix of acetone and water and applied to the plants by spraying with a standard spray nozzle in a spray volume of 3,100 l/ha at a spray pressure of […] (30 psig). Control plants were not sprayed.
(§5) After treatment the plants were placed in a greenhouse with a 30/21° C. day/night temperature regime and were subsequently watered as needed for growth. Approximately 14 days after treatment, the plants were observed and herbicidal efficacy recorded as percent inhibition by comparison with control plants.

For the next assay, the system named is DATST. As to the kind of experiment: Post-emergence herbicidal activity on DATST (jimsonweed). In kind it is in vivo, Datura stramonium.
Description: as §1, §2, §3, §4, §5

Another assay concerns SORHA. Briefly: Post-emergence herbicidal activity on SORHA (johnsongrass, seedling). It is filed as in vivo, Sorghum halepense.
Description: as §1, §2, §3, §4, §5

Another assay has as its system ECHCG. Briefly: Post-emergence herbicidal activity on ECHCG (barnyardgrass). It is filed as in vivo, Echinochloa crus-galli.
Description: as §1, §2, §3, §4, §5

A further assay deals with SORVU. Briefly: Post-emergence herbicidal activity on SORVU (shattercane). It is filed as in vivo, Sorghum vulgare.
Description: as §1, §2, §3, §4, §5

In another assay the test system is PANDI. As to the kind of experiment: Post-emergence herbicidal activity on PANDI (fall panicum). In kind it is in vivo, Panicum dichotomiflorum.
Description: as §1, §2, §3, §4, §5

In the next assay the test system is SOLNI. As to the kind of experiment: Post-emergence herbicidal activity on SOLNI (black nightshade). It is filed as in vivo, Solanum nigrum.
Description: as §1, §2, §3, §4, §5

In the next assay the test system is BRAPP. As to the kind of experiment: Post-emergence herbicidal activity on BRAPP (broadleaf signalgrass). It is filed as in vivo, Brachiaria platyphylla.
Description: as §1, §2, §3, §4, §5

For a further assay, the system named is CIRAR. As to the kind of experiment: Post-emergence herbicidal activity on CIRAR (canada thistle, seedling). It is filed as in vivo, Cirsium arvense.
Description: as §1, §2, §3, §4, §5

For another assay, the system named is AMARE. Briefly: Post-emergence herbicidal activity on AMARE (redroot pigweed). In kind it is in vivo, Amaranthus retroflexus.
Description: as §1, §2, §3, §4, §5

Another assay deals with DIGSA. Briefly: Post-emergence herbicidal activity on DIGSA (large crabgrass). It is filed as in vivo, Digitaria sanguinalis.
A further assay has as its system CHEAL. Briefly: Post-emergence herbicidal activity on CHEAL (common lambsquarters). In kind it is in vivo, Chenopodium album.
Description: as §1, §2, §3, §4, §5

The test system of another assay is POROL. As to the kind of experiment: Post-emergence herbicidal activity on POROL (common purslane; table head prints PORAL). It is filed as in vivo, Portulaca oleracea.
Description: as §1, §2, §3, §4, §5

The test system of another assay is PANMI. As to the kind of experiment: Post-emergence herbicidal activity on PANMI (wild proso millet). In kind it is in vivo, Panicum miliaceum.
The next assay concerns CONAR. Briefly: Post-emergence herbicidal activity on CONAR (field bindweed). It is filed as in vivo, Convolvulus arvensis.
Description: as §1, §2, §3, §4, §5

As for `O=C(NCC(CO)NC(=O)c1cccc(C(F)(F)F)c1)c1cccc(C(F)(F)F)c1` (centres unmarked) [Example 11, N,N′-(3-hydroxy-1,2-propanediylbis)-3-(trifluoromethyl)benzamide], the “Post-emergence activity (GR80) ABUTH” value in the assay on ABUTH was “[empty]”. Also, in the assay with DATST, the “Post-emergence activity (GR80) DATST” value is on record as “phyto”. In addition, the “Post-emergence activity (GR80) SORHA” value in the assay with SORHA was “[empty]”. Also, the “Post-emergence activity (GR80) ECHCG” value with ECHCG is “[empty]”. Moreover, in the assay on SORVU, the “Post-emergence activity (GR80) SORVU” value was “[empty]”. The “Post-emergence activity (GR80) PANDI” value in the assay with PANDI is “[empty]”. The “Post-emergence activity (GR80) SOLNI” value in the assay on SOLNI was “[empty]”. Besides, in the assay with BRAPP, the “Post-emergence activity (GR80) BRAPP” value was “[empty]”. Besides, the “Post-emergence activity (GR80) CIRAR” value in the assay with CIRAR was “[empty]”. In addition, the “Post-emergence activity (GR80) AMARE” value in the assay with AMARE is given as “phyto”. Moreover, in the assay with DIGSA, the “Post-emergence activity (GR80) DIGSA” value is “[empty]”. In addition, the “Post-emergence activity (GR80) CHEAL” value in the assay with CHEAL is “[empty]”. For the same molecule, the “Post-emergence activity (GR80) PORAL” value in the assay on POROL is “[empty]”. For the same molecule, in the assay on PANMI, the “Post-emergence activity (GR80) PANMI” value was “[empty]”.

In the case of `O=C(NCC(CCl)NC(=O)c1cccc(C(F)(F)F)c1)c1cccc(C(F)(F)F)c1` (centres unmarked) [Example 12, N,N′-(3-chloro-1,2-propanediylbis)-3-(trifluoromethyl)benzamide], the “Post-emergence activity (GR80) ABUTH” value with ABUTH is “[empty]”. Besides, the “Post-emergence activity (GR80) DATST” value with DATST was “[empty]”. For the same molecule, the “Post-emergence activity (GR80) SORHA” value with SORHA is “[empty]”. Further, the “Post-emergence activity (GR80) ECHCG” value in the assay with ECHCG is “[empty]”. Moreover, the “Post-emergence activity (GR80) SORVU” value with SORVU was “[empty]”. Besides, the “Post-emergence activity (GR80) PANDI” value in the assay on PANDI was “[empty]”. In addition, the “Post-emergence activity (GR80) SOLNI” value in the assay with SOLNI is “[empty]”. In addition, the “Post-emergence activity (GR80) BRAPP” value in the assay on BRAPP was “[empty]”. Further, the “Post-emergence activity (GR80) CIRAR” value in the assay with CIRAR was 1000 g/ha. Besides, in the assay with AMARE, the “Post-emergence activity (GR80) AMARE” value was “[empty]”. In addition, in the assay on DIGSA, the “Post-emergence activity (GR80) DIGSA” value is “[empty]”. Further, in the assay with CHEAL, the “Post-emergence activity (GR80) CHEAL” value was “[empty]”. The “Post-emergence activity (GR80) CONAR” value with CONAR was “[empty]”. Besides, in the assay with POROL, the “Post-emergence activity (GR80) PORAL” value is given as 1000 g/ha. Moreover, the “Post-emergence activity (GR80) PANMI” value with PANMI is “[empty]”.

Source of the values: US20020052295A1, “Diacyl derivatives of propylene diamine having herbicidal activity” (priority 1999, published 2002).
